Patent US20150105252A1, “SUBSTITUTED PYRAZOLES AS HERBICIDES” (E I DU PONT DE NEMOURS AND COMPANY, priority 2013, published 2015)

Key:
soybean = test: Test C postemergence; assay type: in vivo, Glycine max; conditions: for Plant response rating (scale of 0 to 100 where 0 is no effect and 100 is complete control), Soybean / Plant response rating (scale of 0 to 100), Soybean: Postemergence; for Plant response rating (scale of 0 to 100 where 0 is no effect and 100 is complete control), Soybean: 31 g ai/ha, visually evaluated after 13 to 15 days; for Soybean plant response rating / Plant response rating, Soybean: postemergence; for Soybean plant response rating: 62 g ai/ha, scale 0 to 100; for Plant response rating (scale of 0 to 100), Soybean: 16 g ai/ha
How it was run: (§1)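 Visual rating, 0–100 scale (0 no effect, 100 complete control), vs untreated controls after 13–15 d greenhouse. Pre: seeds in loam/sand, treated at sowing. Post: plants in peat-based mix, 1- to 4-leaf (2–18 cm). Solvent + surfactant formulation, non-phytotoxic.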

velvetleaf = test: Test C postemergence; assay type: in vivo, Abutilon theophrasti; conditions: for Plant response rating (scale of 0 to 100 where 0 is no effect and 100 is complete control), Velvetleaf / Plant response rating (scale of 0 to 100), Velvetleaf: Postemergence; for Plant response rating (scale of 0 to 100 where 0 is no effect and 100 is complete control), Velvetleaf: 31 g ai/ha, visually evaluated after 13 to 15 days; for Velvetleaf plant response rating / Plant response rating, Velvetleaf: postemergence; for Velvetleaf plant response rating: 62 g ai/ha, scale 0 to 100; for Plant response rating (scale of 0 to 100), Velvetleaf: 16 g ai/ha
How it was run: as §1

oilseed rape [1] = test: Test C preemergence; assay type: in vivo, Brassica napus; conditions: for Oilseed Rape plant response rating: scale 0 to 100 (0 no effect, 100 complete control)
How it was run: as §1

ducksalad = test: Test B flood; assay type: in vivo, Heteranthera limosa; conditions: 250 g ai/ha, visual rating on 0 to 100 scale (0 no effect, 100 complete control), 13 to 15 days
How it was run: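 Each compound is applied to the floodwater of pots holding 2-leaf seedlings, water standing 3 cm over the soil throughout. Plants stay in a greenhouse 13 to 15 days before visual scoring against controls from 0 (no effect) to 100 (complete control).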

blackgrass = test: Test C preemergence; assay type: in vivo, Alopecurus myosuroides; conditions: for Blackgrass plant response rating: scale 0 to 100 (0 no effect, 100 complete control)
How it was run: as §1

crabgrass, large [2] = test: Test C postemergence; assay type: in vivo, Digitaria sanguinalis; conditions: for Plant response rating (scale of 0 to 100 where 0 is no effect and 100 is complete control), Crabgrass, Large: visually evaluated after 13 to 15 days; for Crabgrass, Large plant response rating: scale 0 to 100; for Plant response rating (scale of 0 to 100), Crabgrass, Large: 16 g ai/ha
How it was run: as §1

waterhemp = test: Test C postemergence; assay type: in vivo, Amaranthus rudis; conditions: for Plant response rating (scale of 0 to 100 where 0 is no effect and 100 is complete control), Waterhemp: 31 g ai/ha, visually evaluated after 13 to 15 days; for Waterhemp plant response rating / Plant response rating, Waterhemp: postemergence; for Waterhemp plant response rating: 62 g ai/ha, scale 0 to 100
How it was run: as §1

crabgrass, large [3] = test: Test C preemergence; assay type: in vivo, Digitaria sanguinalis
How it was run: as §1

johnsongrass = test: Test C preemergence; assay type: in vivo, Sorghum halepense
How it was run: as §1

morningglory [4] = test: Test C preemergence; assay type: in vivo, Ipomoea coccinea; conditions: for Morningglory plant response rating: scale 0 to 100 (0 no effect, 100 complete control)
How it was run: as §1

oilseed rape [5] = test: Test C postemergence; assay type: in vivo, Brassica napus; conditions: for Plant response rating (scale of 0 to 100 where 0 is no effect and 100 is complete control), Oilseed Rape: visually evaluated after 13 to 15 days; for Oilseed Rape plant response rating: scale 0 to 100; for Plant response rating (scale of 0 to 100), Oilseed Rape: 16 g ai/ha
How it was run: as §1

foxtail, giant = test: Test A postemergence; assay type: in vivo, Setaria faberii
How it was run: (§2)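 Greenhouse test in loam soil/sand blend; compounds formulated in non-phytotoxic solvent with surfactant, applied as preemergence directed soil spray or postemergence to plants 2–10 cm tall at one- to two-leaf stage. Injury rated visually versus untreated controls after approximately 10 days on a 0 (no effect) to 100 (complete control) scale.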

morningglory [6] = test: Test A postemergence; assay type: in vivo, Ipomoea spp.
How it was run: as §2

[7] = 250 g ai/ha, scale 0 to 100 (0 no effect, 100 complete control)
[8] = 125 g ai/ha, scale 0 to 100, 0 no effect, 100 complete control
[9] = preemergence, 31 g ai/ha, visual rating, 13 to 15 days
[10] = preemergence, 62 g ai/ha, 13 to 15 days
[11] = preemergence, 125 g ai/ha, 13 to 15 days, scale 0 to 100, 0 = no effect, 100 = complete control
[12] = postemergence, 250 g ai/ha, scale 0 to 100 (0 no effect, 100 complete control)
[13] = postemergence, 125 g ai/ha, scale 0 to 100, 0 no effect, 100 complete control
[14] = preemergence, 31 g ai/ha, visual rating, scale 0 to 100 (0 no effect, 100 complete control), 13 to 15 days
[15] = preemergence, 62 g ai/ha, scale 0 to 100 (0 no effect, 100 complete control), 13 to 15 days
[16] = postemergence, 125 g ai/ha, about 10 days, visual rating on 0 to 100 scale (0 no effect, 100 complete control)
[17] = Postemergence, 500 g ai/ha, visual rating after approx. 10 days, 0 to 100 scale (0 no effect, 100 complete control)
[18] = Preemergence, 16 g ai/ha, scale 0 to 100
[19] = preemergence, 31 g ai/ha, scale 0 to 100 (0 no effect, 100 complete control), 13 to 15 days
[20] = preemergence, 62 g ai/ha, 13 to 15 days, scale 0 to 100, 0 = no effect, 100 = complete control
[21] = preemergence, 125 g ai/ha, scale 0 to 100, 0 is no effect, 100 is complete control

CCCc1cc(C(=O)NCC(F)(F)F)nn1Cc1ccnc(OC(F)F)c1 [Compound 127]
Plant response rating (scale of 0 to 100 where 0 is no effect and 100 is complete control), Soybean (soybean): 40
Soybean plant response rating (soybean): 65
Plant response rating, Soybean (soybean; [7]): 85
Plant response rating, Soybean (soybean; [8]): 70
Plant response rating (scale of 0 to 100 where 0 is no effect and 100 is complete control), Velvetleaf (velvetleaf): 10
Velvetleaf plant response rating (velvetleaf): 15
Plant response rating, Velvetleaf (velvetleaf; [7]): 70
Plant response rating, Velvetleaf (velvetleaf; [8]): 45
Plant response rating (scale of 0 to 100), Oilseed Rape (oilseed rape [1]; Preemergence, 250 g ai/ha): 100
Oilseed Rape plant response rating (oilseed rape [1]; [9]): 85
Oilseed Rape plant response rating (oilseed rape [1]; [10]): 100
Plant response rating, Oilseed Rape (oilseed rape [1]; [11]): 100
Plant response rating, Ducksalad (ducksalad): 95
Plant response rating (scale of 0 to 100), Blackgrass (blackgrass; Preemergence, 250 g ai/ha): 85
Blackgrass plant response rating (blackgrass; [9]): 20
Blackgrass plant response rating (blackgrass; [10]): 60
Plant response rating, Blackgrass (blackgrass; [11]): 60
Plant response rating (scale of 0 to 100 where 0 is no effect and 100 is complete control), Crabgrass, Large (crabgrass, large [2]; Postemergence, 31 g ai/ha): 10
Crabgrass, Large plant response rating (crabgrass, large [2]; postemergence, 62 g ai/ha): 10
Plant response rating, Crabgrass, Large (crabgrass, large [2]; [12]): 55
Plant response rating, Crabgrass, Large (crabgrass, large [2]; [13]): 20
Plant response rating (scale of 0 to 100 where 0 is no effect and 100 is complete control), Waterhemp (waterhemp; Postemergence): 50
Waterhemp plant response rating (waterhemp): 65
Plant response rating, Waterhemp (waterhemp; [7]): 70
Plant response rating, Waterhemp (waterhemp; [8]): 70
Plant response rating (scale of 0 to 100), Crabgrass, Large (crabgrass, large [3]; Preemergence, 250 g ai/ha): 100
Crabgrass, Large plant response rating (crabgrass, large [3]; [14]): 80
Crabgrass, Large plant response rating (crabgrass, large [3]; [15]): 100
Plant response rating, Crabgrass, Large (crabgrass, large [3]; [11]): 100
Plant response rating (scale of 0 to 100), Johnsongrass (johnsongrass; Preemergence, 250 g ai/ha): 90
Johnsongrass plant response rating (johnsongrass; [14]): 55
Johnsongrass plant response rating (johnsongrass; [15]): 55
Plant response rating, Johnsongrass (johnsongrass; [11]): 80
Plant response rating (scale of 0 to 100), Morningglory (morningglory [4]; Preemergence, 250 g ai/ha): 100
Morningglory plant response rating (morningglory [4]; [9]): 60
Morningglory plant response rating (morningglory [4]; [10]): 55
Plant response rating, Morningglory (morningglory [4]; [11]): 100
Plant response rating (scale of 0 to 100 where 0 is no effect and 100 is complete control), Oilseed Rape (oilseed rape [5]; Postemergence, 31 g ai/ha): 65
Oilseed Rape plant response rating (oilseed rape [5]; postemergence, 62 g ai/ha): 70
Plant response rating, Oilseed Rape (oilseed rape [5]; [12]): 85
Plant response rating, Oilseed Rape (oilseed rape [5]; [13]): 80
Foxtail, Giant plant response rating (foxtail, giant; Postemergence, 500 g ai/ha, 0 to 100 scale (0 no effect, 100 complete control)): 90
Foxtail, Giant plant response rating (foxtail, giant; [16]): 90

CCCNC(=O)c1cc(CC)n(Cc2ccnc(C(F)(F)F)c2)n1 [Compound 75]
Plant response rating (scale of 0 to 100), Soybean (soybean): 40
Soybean plant response rating (soybean): 75
Plant response rating, Soybean (soybean; [8]): 90
Plant response rating (scale of 0 to 100), Velvetleaf (velvetleaf): 25
Velvetleaf plant response rating (velvetleaf): 35
Plant response rating, Velvetleaf (velvetleaf; [8]): 40
Plant response rating, Ducksalad (ducksalad): 85
Plant response rating (scale of 0 to 100), Crabgrass, Large (crabgrass, large [2]; Postemergence): 20
Crabgrass, Large plant response rating (crabgrass, large [2]; Postemergence, 31 g ai/ha): 20
Crabgrass, Large plant response rating (crabgrass, large [2]; postemergence, 62 g ai/ha): 25
Plant response rating, Crabgrass, Large (crabgrass, large [2]; [13]): 80
Morningglory plant response rating (morningglory [6]; [17]): 100
Morningglory plant response rating (morningglory [6]; [16]): 100
Waterhemp plant response rating (waterhemp): 45
Plant response rating, Waterhemp (waterhemp; [8]): 75
Plant response rating, Crabgrass, Large (crabgrass, large [3]; [18]): 100
Crabgrass, Large plant response rating (crabgrass, large [3]; [19]): 100
Plant response rating, Crabgrass, Large (crabgrass, large [3]; [20]): 100
Crabgrass, Large plant response rating (crabgrass, large [3]; [21]): 100
Plant response rating, Johnsongrass (johnsongrass; [18]): 65
Johnsongrass plant response rating (johnsongrass; [19]): 100
Plant response rating, Johnsongrass (johnsongrass; [20]): 100
Johnsongrass plant response rating (johnsongrass; [21]): 100
Plant response rating (scale of 0 to 100), Oilseed Rape (oilseed rape [5]; Postemergence): 20
Oilseed Rape plant response rating (oilseed rape [5]; Postemergence, 31 g ai/ha): 50
Oilseed Rape plant response rating (oilseed rape [5]; postemergence, 62 g ai/ha): 50
Plant response rating, Oilseed Rape (oilseed rape [5]; [13]): 60
Foxtail, Giant plant response rating (foxtail, giant; [17]): 100
Foxtail, Giant plant response rating (foxtail, giant; [16]): 90

CCONC(=O)c1cc(CC)n(Cc2ccnc(C(F)(F)F)c2)n1 [Compound 77]
Plant response rating (scale of 0 to 100), Soybean (soybean): 10
Plant response rating (scale of 0 to 100 where 0 is no effect and 100 is complete control), Soybean (soybean): 10
Soybean plant response rating (soybean): 25
Plant response rating, Soybean (soybean; [8]): 35
Plant response rating (scale of 0 to 100), Velvetleaf (velvetleaf): 10
Plant response rating (scale of 0 to 100 where 0 is no effect and 100 is complete control), Velvetleaf (velvetleaf): 15
Velvetleaf plant response rating (velvetleaf): 15
Plant response rating, Velvetleaf (velvetleaf; [8]): 20
Plant response rating, Ducksalad (ducksalad): 80
Plant response rating (scale of 0 to 100), Crabgrass, Large (crabgrass, large [2]; Postemergence): 5
Plant response rating (scale of 0 to 100 where 0 is no effect and 100 is complete control), Crabgrass, Large (crabgrass, large [2]; Postemergence, 31 g ai/ha): 10
Crabgrass, Large plant response rating (crabgrass, large [2]; postemergence, 62 g ai/ha): 10
Plant response rating, Crabgrass, Large (crabgrass, large [2]; [13]): 20
Morningglory plant response rating (morningglory [6]; [17]): 90
Morningglory plant response rating (morningglory [6]; [16]): 100
Plant response rating (scale of 0 to 100), Waterhemp (waterhemp; Postemergence, 16 g ai/ha): 10
Plant response rating (scale of 0 to 100 where 0 is no effect and 100 is complete control), Waterhemp (waterhemp; Postemergence): 10
Waterhemp plant response rating (waterhemp): 10
Plant response rating, Waterhemp (waterhemp; [8]): 65
Plant response rating, Crabgrass, Large (crabgrass, large [3]; [18]): 60
Crabgrass, Large plant response rating (crabgrass, large [3]; [19]): 85
Plant response rating, Crabgrass, Large (crabgrass, large [3]; [20]): 100
Crabgrass, Large plant response rating (crabgrass, large [3]; [21]): 100
Plant response rating, Johnsongrass (johnsongrass; [18]): 10
Johnsongrass plant response rating (johnsongrass; [19]): 45
Johnsongrass plant response rating (johnsongrass; [21]): 70
Plant response rating (scale of 0 to 100), Oilseed Rape (oilseed rape [5]; Postemergence): 5
Plant response rating (scale of 0 to 100 where 0 is no effect and 100 is complete control), Oilseed Rape (oilseed rape [5]; Postemergence, 31 g ai/ha): 5
Oilseed Rape plant response rating (oilseed rape [5]; postemergence, 62 g ai/ha): 5
Plant response rating, Oilseed Rape (oilseed rape [5]; [13]): 15
Foxtail, Giant plant response rating (foxtail, giant; [17]): 100
Foxtail, Giant plant response rating (foxtail, giant; [16]): 90
